19 compounds from patent publication US9399646B2 (Genentech, Inc., priority 2010, dated 2016) can be followed below.

The test system of test [1] is MCF-7 cells. As to the kind of experiment: Breast cancer cell viability assay (CellTiter-Glo, 5 days). To be noted: 5 days' compound exposure; for IC50: Homo sapiens, MCF7, 120 h. The class given is cell-based. A digest of the protocol: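 Eleven-point semilog compound series, final 0.3-0.000003 μM, added to overnight-adhered MCF-7 cells (320/well; RPMI, 10% FBS, 20 mM HEPES) for 5 days. Viability read by CellTiter-Glo luminescence, background from medium without cells subtracted, expressed relative to untreated cells.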

In test [2] the target is T1, ER-α in MCF-7 cells (Homo sapiens, UniProt P03372).
T1 sequence (P03372 1-595): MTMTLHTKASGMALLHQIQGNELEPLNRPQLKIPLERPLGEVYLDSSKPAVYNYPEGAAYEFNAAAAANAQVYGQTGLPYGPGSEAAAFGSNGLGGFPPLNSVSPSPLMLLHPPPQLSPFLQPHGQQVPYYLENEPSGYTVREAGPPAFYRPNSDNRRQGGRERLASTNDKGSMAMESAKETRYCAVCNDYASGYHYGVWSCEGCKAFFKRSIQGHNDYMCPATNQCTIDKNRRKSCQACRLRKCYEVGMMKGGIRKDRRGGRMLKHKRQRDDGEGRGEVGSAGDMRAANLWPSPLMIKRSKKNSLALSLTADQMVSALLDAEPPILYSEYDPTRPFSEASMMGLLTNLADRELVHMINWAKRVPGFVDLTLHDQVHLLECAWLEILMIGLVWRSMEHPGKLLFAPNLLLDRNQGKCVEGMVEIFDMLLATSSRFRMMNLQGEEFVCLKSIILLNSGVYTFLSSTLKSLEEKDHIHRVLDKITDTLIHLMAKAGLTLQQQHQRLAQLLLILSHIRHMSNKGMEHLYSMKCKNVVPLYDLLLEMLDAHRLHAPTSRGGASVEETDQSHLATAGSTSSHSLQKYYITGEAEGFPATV
Nature of the test: Breast cancer cell ER-α in cell western assay (SP1). The class given is cell-based. On the set-up: endogenous in cells; host or cells: MCF-7. To be noted: 4 or 24 hr post compound addition; for Emax: MCF7, SP1 antibody, read-out: ER-α In Cell Western Assay (SP1) Max Response; for DC50: SP1 antibody, read-out: ER-α In Cell Western Assay (SP1) IC50. A digest of the protocol: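 Percent remaining ER: SP1 immunofluorescence normalized to DRAQ5 nuclear stain, compared with untreated controls. Treatment lasted 4 or 24 hr across 0.3–0.000003 μM final in MCF-7.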

Structures are written as SMILES.

Turning to `CC/C(=C(/c1ccc(/C=C/C(=O)O)cc1)c1ccc2[nH]ncc2c1)c1ccc(Oc2ccccc2)c(F)c1` [Compound 295, (E)-3-(4-((E)-2-(3-Fluoro-4-phenoxyphenyl)-1-(1H-indazol-5-yl)but-1-en-1-yl)phenyl)acrylic acid], in test [1], the “MCF7 Viability Assay Max Response” value is recorded as “++ (++ = a single % value ≧ 40%)” and the half-maximal inhibitory concentration (IC50) (in general, the midpoint of a concentration-inhibition curve) was at most 100 nM. In test [2], the Emax is at least 40% and the DC50 is at most 100 nM.

For `CCCCCCOc1ccc(/C(CC)=C(\c2ccc(/C=C/C(=O)O)cc2)c2ccc3[nH]ncc3c2)cc1` [Compound 357, (E)-3-(4-((E)-2-(4-(Hexyloxy)phenyl)-1-(1H-indazol-5-yl)but-1-en-1-yl)phenyl)acrylic acid], in test [1], the “MCF7 Viability Assay Max Response” value was “++ (++ = a single % value ≧ 40%)” and the half-inhibitory concentration (IC50) is above 100 nM. Besides, in test [2], the Emax is at least 40% and the DC50 was above 100 nM.

With `CC/C(=C(/c1ccc(/C=C/C(=O)O)cc1)c1ccc2[nH]ncc2c1)c1cccc(N2CCOCC2)c1` [Compound 265, (E)-3-(4-((E)-1-(1H-Indazol-5-yl)-2-(3-morpholinophenyl)but-1-en-1-yl)phenyl)acrylic acid], in test [1], the “MCF7 Viability Assay Max Response” value is reported as “++ (++ = a single % value ≧ 40%)” and the IC50 was above 100 nM. In test [2], the Emax was at least 40% and the DC50 was above 100 nM.

In the case of `CC/C(=C(/c1ccc(/C=C/C(=O)O)cc1)c1ccc2[nH]ncc2c1)c1ccc(-c2ccsc2)cc1` [Compound 386, (E)-3-(4-((E)-1-(1H-Indazol-5-yl)-2-(4-(thiophen-3-yl)phenyl)but-1-en-1-yl)phenyl)acrylic acid], in test [1], the “MCF7 Viability Assay Max Response” value is reported as “++ (++ = a single % value ≧ 40%)” and the half-maximal inhibitory concentration (IC50) is above 100 nM. Further, in test [2], the Emax is at least 40% and the DC50 was at most 100 nM.

`CC/C(=C(/c1ccc(/C=C/C(=O)O)cc1)c1ccc2scnc2c1)c1ccc(F)cc1` [Compound 281, (E)-3-(4-((E)-1-(Benzo[d]thiazol-5-yl)-2-(4-fluorophenyl)but-1-en-1-yl)phenyl)acrylic acid]: in test [1], the “MCF7 Viability Assay Max Response” value is given as “++ (++ = a single % value ≧ 40%)” and the IC50 is above 100 nM. Besides, in test [2], the Emax is at least 40% and the DC50 is at most 100 nM.

Take `CC/C(=C(/c1ccc(/C=C/C(=O)O)cc1)c1ccc2[nH]ncc2c1)c1ccc2nccnc2c1` [Compound 266, (E)-3-(4-((E)-1-(1H-Indazol-5-yl)-2-(quinoxalin-6-yl)but-1-en-1-yl)phenyl)acrylic acid]: in test [1], the “MCF7 Viability Assay Max Response” value was “++ (++ = a single % value ≧ 40%)” and the IC50 is at most 100 nM. For the same compound, in test [2], the Emax was at least 40% and the DC50 is at most 100 nM.

Turning to `O=C(O)/C=C/c1ccc(/C(=C(\c2ccc(F)cc2Cl)C2CCC2)c2ccc3nccn3c2)cc1` [Compound 311, (E)-3-(4-((E)-2-(2-Chloro-4-fluorophenyl)-2-cyclobutyl-1-(imidazo[1,2-a]pyridin-6-yl)vinyl)phenyl)acrylic acid], in test [1], the “MCF7 Viability Assay Max Response” value is “++ (++ = a single % value ≧ 40%)” and the IC50 is at most 100 nM. For the same compound, in test [2], the Emax was at least 40% and the DC50 was at most 100 nM.

In the case of `CC/C(=C(/c1ccc(/C=C/C(=O)O)cc1)c1ccc2[nH]ncc2c1)c1ccsc1Cl` [Compound 267, (E)-3-(4-((E)-2-(2-Chlorothiophen-3-yl)-1-(1H-indazol-5-yl)but-1-en-1-yl)phenyl)acrylic acid], in test [1], the “MCF7 Viability Assay Max Response” value is “++ (++ = a single % value ≧ 40%)” and the IC50 is at most 100 nM. Also, in test [2], the Emax is at least 40% and the DC50 is at most 100 nM.

For `CC/C(=C(/c1ccc(/C=C/C(=O)O)cc1)c1ccc2[nH]cnc2c1)c1ccccc1` [Compound 83, (E)-3-(4-((E)-1-(1H-Benzo[d]imidazol-5-yl)-2-phenylbut-1-en-1-yl)phenyl)acrylic acid], in test [1], the “MCF7 Viability Assay Max Response” value is listed as “++ (++ = a single % value ≧ 40%)” and the IC50 was above 100 nM. In addition, the Emax in test [2] is at least 40%.

As to `CC/C(=C(/c1ccc(/C=C/C(=O)O)cc1)c1ccc2[nH]ncc2c1)c1ccncc1C` [Compound 226, (E)-3-(4-((E)-1-(1H-Indazol-5-yl)-2-(3-methylpyridin-4-yl)but-1-en-1-yl)phenyl)acrylic acid], in test [1], the “MCF7 Viability Assay Max Response” value is recorded as “++ (++ = a single % value ≧ 40%)” and the IC50 is at most 100 nM. Moreover, the Emax in test [2] was at least 40%.

Take `CC/C(=C(/c1ccc(/C=C/C(=O)O)cc1)c1ccc2[nH]ncc2c1)c1cccc(Oc2ccccc2C)c1` [Compound 368, (E)-3-(4-((E)-1-(1H-Indazol-5-yl)-2-(3-(o-tolyloxy)phenyl)but-1-en-1-yl)phenyl)acrylic acid]: in test [1], the “MCF7 Viability Assay Max Response” value is “++ (++ = a single % value ≧ 40%)” and the IC50 is at most 100 nM. In addition, in test [2], the Emax was at least 40% and the DC50 was at most 100 nM.

As for `CC/C(=C(/c1ccc(/C=C/C(=O)O)cc1)c1ccc2[nH]ncc2c1)c1ccc(-c2cncnc2)cc1` [Compound 383, (E)-3-(4-((E)-1-(1H-Indazol-5-yl)-2-(4-(pyrimidin-5-yl)phenyl)but-1-en-1-yl)phenyl)acrylic acid], in test [1], the “MCF7 Viability Assay Max Response” value was “++ (++ = a single % value ≧ 40%)” and the concentration for half-maximal inhibition (IC50) was above 100 nM. In test [2], the Emax is at least 40% and the DC50 was above 100 nM.

With `CC/C(=C(/c1ccc(/C=C/C(=O)O)cc1)c1ccc2ncccc2c1)c1ccc(F)cc1` [Compound 118, (E)-3-(4-((E)-2-(4-Fluorophenyl)-1-(quinolin-6-yl)but-1-en-1-yl)phenyl)acrylic acid], in test [1], the “MCF7 Viability Assay Max Response” value was “++ (++ = a single % value ≧ 40%)” and the 50% inhibitory concentration (IC50) is above 100 nM. In addition, in test [2], the Emax is at least 40% and the DC50 is above 100 nM.

In the case of `CC/C(=C(/c1ccc(/C=C/C(=O)O)cc1)c1ccc2[nH]ncc2c1)c1ccncc1F` [Compound 231, (E)-3-(4-((E)-2-(3-Fluoropyridin-4-yl)-1-(1H-indazol-5-yl)but-1-en-1-yl)phenyl)acrylic acid], in test [1], the “MCF7 Viability Assay Max Response” value is “++ (++ = a single % value ≧ 40%)” and the IC50 is at most 100 nM. In addition, in test [2], the Emax is at least 40% and the DC50 was at most 100 nM.

`CC/C(=C(/c1ccc(/C=C/C(=O)O)cc1)c1ccc2nccn2c1)c1ccc(Cl)cc1Cl` [Compound 232, (E)-3-(4-((E)-2-(2,4-Dichlorophenyl)-1-(imidazo[1,2-a]pyridin-6-yl)but-1-en-1-yl)phenyl)acrylic acid]: in test [1], the “MCF7 Viability Assay Max Response” value was “++ (++ = a single % value ≧ 40%)” and the IC50 was at most 100 nM. For the same compound, in test [2], the Emax is at least 40% and the DC50 was at most 100 nM.

As for `Cc1cscc1/C(=C(\c1ccc(/C=C/C(=O)O)cc1)c1ccc2[nH]ncc2c1)C(C)C` [Compound 154, (E)-3-(4-((E)-1-(1H-Indazol-5-yl)-3-methyl-2-(4-methylthiophen-3-yl)but-1-en-1-yl)phenyl)acrylic acid], in test [1], the “MCF7 Viability Assay Max Response” value is “++ (++ = a single % value ≧ 40%)” and the 50% inhibitory concentration (IC50) is at most 100 nM. In test [2], the Emax is at least 40% and the DC50 was at most 100 nM.

In the case of `CC/C(=C(/c1ccc(/C=C/C(=O)O)cc1)c1ccc2[nH]ncc2c1)c1cccc(OCCCOC)c1` [Compound 342, (E)-3-(4-((E)-1-(1H-Indazol-5-yl)-2-(3-(3-methoxypropoxy)phenyl)but-1-en-1-yl)phenyl)acrylic acid], in test [1], the “MCF7 Viability Assay Max Response” value was “++ (++ = a single % value ≧ 40%)” and the IC50 was at most 100 nM. For the same compound, in test [2], the Emax was at least 40% and the DC50 was at most 100 nM.

For `CC/C(=C(/c1ccc(/C=C/c2nn[nH]n2)cc1)c1ccc2scnc2c1)c1ccncc1Cl` [Compound 446, 5-((E)-1-(4-((E)-2-(2H-Tetrazol-5-yl)vinyl)phenyl)-2-(3-chloropyridin-4-yl)but-1-en-1-yl)benzo[d]thiazole], in test [1], the “MCF7 Viability Assay Max Response” value is recorded as “++ (++ = a single % value ≧ 40%)” and the IC50 was at most 100 nM. Further, in test [2], the Emax is at least 40% and the DC50 is at most 100 nM.

As for `CC/C(=C(/c1ccc(/C=C/C(=O)O)cc1)c1ccc2[nH]ncc2c1)c1cccc(OCc2ccccc2)c1` [Compound 358, (E)-3-(4-((E)-2-(3-(Benzyloxy)phenyl)-1-(1H-indazol-5-yl)but-1-en-1-yl)phenyl)acrylic acid], in test [1], the “MCF7 Viability Assay Max Response” value is “++ (++ = a single % value ≧ 40%)” and the IC50 was at most 100 nM. Also, in test [2], the Emax is at least 40% and the DC50 is at most 100 nM.
